According to patent US8912223B2, “Compositions and processes for preparing 5-amino or substituted amino 1,2,3-triazoles and triazoles orotate formulations” (priority 2013, dated 2014):
Read-outs that look alike come from different tables or passages of the source.

Columns and labels:
[1] = Gastric lesions and toxicity in rodents; conditions: in vivo
From the text: This may be related to the absence of use of toxic ingredients such as sodium azide or potassium azide.

[2] = Bioavailability of CTO given orally as solid in capsule or as liquid in PEG-400; CAI in plasma by HPLC/MS; assay type: in vivo, dogs; conditions: for Cmax / half-life: po; for Cmax: 685 mg/kg; for concentration at 1 h: measured as CAI, read-out: Plasma concentration after 1 hr
Description: The bioavailability of CTO (base:acid, 0.7:1.3) was determined by administering a single dose 685 mg/kg by capsule (Group 1) or by oral gavage in PEG400 (Group 2). Two dogs (1F/1M) were used in each group. Blood samples were collected at 0, 1, 2, 4, 8, 12, 24, 48, 72, and 92 hours. CAI was measured by HPLC/MS.

[3] = tested on: HT29 human colon tumor xenografts; test: Anticancer activity in s.c.-implanted HT29 human colon tumor xenografts; assay type: in vivo, mice; conditions: CTO 343 mg/kg/day, days 13-26; measured at 41 days; control 1436 mm^3; p=0.0050 vs control
Description: The effect of CTO M.W. of 580.8 and CAI M.W. of 424.6+Orotic Acid M.W. of 156.1, was studied in s.c.-implanted HT29 human colon tumor xenografts in male, athymic NCr-n u/nu mice. 6 week old mice were implanted with HT29 fragments and 13 days later were sorted in […] groups of ten. For the next 14 days (13-26 days), Group 1 control (C) received the vehicle; Group 2=343 mg/kg/dose; Group 3=240 mg/kg/day CAI+103 mg/kg/day orotic acid. At 41 days, the mean tumor volume (mm^3) was measured as shown below: • Group 1 (Control)=1436 mm^3 • Group 2 (CTO343 mg/kg/day)=864 mm^3 (p=0.0050, Gr2 vs Gr 1) • Group 3 (CAI […]+Orotic Acid 103 mg/kg/day)=1268 mm^3 (p=0.2706,Gr 3 vs Gr 1). […] However, CAI+Orotic acid formulation did show some tumor inhibition.

[4] = assay type: in vivo; conditions: dogs, PO, 175, 350, 1025 mg/kg/day, after 28 days
[5] = CTO concentration (as CAI) in brain tissue after oral dosing; assay type: in vivo, mice; conditions: mouse, eight hours after treatment, read-out: CAI levels in brain tissue
Description: CTO was given orally (in PEG400) to six week old mice sorted in two Groups of 6. Two doses were administered-Group 1=513 mg/kg; Group 2=342 mg/kg. Eight hours after treatment with CTO, the mice were euthanized for measurement of CTO concentration (as CAI) in brain tissue.

[6] = tested on: Dunning R-3227-AT-1 prostate cancer model; conditions: rats; compared with equivalent dose of L651582; U.S. Pat. No. 5,912,346; cited from earlier work

For `NC(=O)c1nnn(Cc2cc(Cl)c(C(=O)c3ccc(Cl)cc3)c(Cl)c2)c1N` [CAI, 5-Amino-1-(4-(4-chlorobenzoyl)-3,5-dichlorobenzyl)-1,2,3-triazole-4-carboxamide], the “gastric lesions and toxicity” value [1] was “less gastric lesions and toxicity”.
`NC(=O)c1nnn(Cc2cc(Cl)c(C(=O)c3ccc(Cl)cc3)c(Cl)c2)c1N` [CTO, 5-Amino-1-(4-(4-chlorobenzoyl)-3,5-dichlorobenzyl)-1,2,3-triazole-4-carboxamide, compound with orotic acid] gave a bioavailability ([2]; both sexes, dog, plasma, oral gavage in PEG400, single dose 685 mg/kg, dogs, read-out: Bioavailability relative to Group 1 (capsule, 100%)) of 81.8%, an AUC ([2]; capsule, single dose 685 mg/kg, female dog) of 277 µg/mL and an AUC ([2]; capsule, single dose 685 mg/kg, male dog) of 326 µg/mL. It also gave a Cmax ([2]; female, dog, plasma, capsule, single dose 685 mg/kg, female dog) of 7950 ng/mL, a Cmax ([2]; female, dog, plasma, oral gavage in PEG400, single dose 685 mg/kg, female dog) of 5350 ng/mL and a Cmax ([2]; male, dog, plasma, capsule, single dose 685 mg/kg, male dog) of 5800 ng/mL. For the same compound, the Cmax ([2]; male, dog, plasma, oral gavage in PEG400, single dose 685 mg/kg, male dog) was 6630 ng/mL, the concentration at 1 h ([2]; plasma, oral, capsule, single dose 685 mg/kg, female dog) was 174 ng/mL and the concentration at 1 h ([2]; plasma, oral, capsule, single dose 685 mg/kg, male dog) was 155 ng/mL. The half-life ([2]; plasma, capsule, single dose 685 mg/kg, female dog) was 22.7 h, the half-life ([2]; plasma, capsule, single dose 685 mg/kg, male dog) was 18 h and the concentration at 1 h ([2]; plasma, oral gavage in PEG400, single dose 685 mg/kg, female dog) was 570 ng/mL. The concentration at 1 h ([2]; plasma, oral gavage in PEG400, single dose 685 mg/kg, male dog) was 511 ng/mL, the mean tumor volume [3] was 864 mm^3 and the deaths [4] was “no deaths occurred”. The concentration at 8 h ([5]; CTO 342 mg/kg orally in PEG400, mice) was 11000 ± 1700 ng/g and the concentration at 8 h ([5]; CTO 513 mg/kg orally in PEG400, mice) was 15200 ± 2370 ng/g.
In the case of `NC(=O)c1nnn(Cc2cc(Cl)c(C(=O)c3ccc(Cl)cc3)c(Cl)c2)c1N.O=C(O)c1cc(=O)[nH]c(=O)[nH]1` [L651582 Orotate], the antitumor activity [6] is listed as “improved antitumor activity”.
